In brackets after ≈: the same amount, converted by molar mass. Several values for one entry are separate records, joined by “and”; a condition that tells them apart may be missing. Identical values can stand only once. Like-named read-outs stand apart in the source and are kept apart here.
Tests used:
[1] = target: SARS-CoV-2 3CLpro (Severe acute respiratory syndrome coronavirus 2, UniProt P0DTD1); experiment: Thermal-shift assay; conditions: n=8; 55.9+/−[…] C. (n=16) without compound
[2] = target: Human Elastase (Homo sapiens, UniProt P08246); experiment: Protease panel; format: biochemical
Human Elastase, sequence (P08246 30-247): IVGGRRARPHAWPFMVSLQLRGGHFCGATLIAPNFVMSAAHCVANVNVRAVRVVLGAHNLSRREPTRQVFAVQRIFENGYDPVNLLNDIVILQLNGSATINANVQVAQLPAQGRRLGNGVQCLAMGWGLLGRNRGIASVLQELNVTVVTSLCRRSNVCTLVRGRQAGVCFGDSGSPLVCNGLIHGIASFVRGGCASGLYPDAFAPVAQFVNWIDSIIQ

[3] = Freeze-thaw experiment; conditions: solutions of the order-of-addition experiment, −20° C. freezer ~24 hours, thawed at room temperature
[4] = target: 229E-CoV-2 3CLpro (Human coronavirus 229E, UniProt P0C6X1); experiment: FRET protease activity assay; format: biochemical; conditions: Alpha-CoV; [E]T 118 ± 3 nM
229E-CoV-2 3CLpro, sequence (P0C6X1 2966-3267): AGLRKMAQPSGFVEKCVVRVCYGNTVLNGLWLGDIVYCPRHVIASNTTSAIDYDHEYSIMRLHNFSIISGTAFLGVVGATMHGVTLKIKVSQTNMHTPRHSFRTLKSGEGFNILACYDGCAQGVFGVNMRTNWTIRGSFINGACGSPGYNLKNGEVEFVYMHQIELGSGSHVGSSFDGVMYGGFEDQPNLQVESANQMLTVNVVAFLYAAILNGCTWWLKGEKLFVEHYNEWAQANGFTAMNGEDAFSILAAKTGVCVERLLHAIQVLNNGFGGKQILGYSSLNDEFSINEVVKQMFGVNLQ

[5] = Saturated solubility in CD/water mixtures with polymeric excipients (F6); conditions: 25° C., pH 5, HP-β-CD 15 mg/mL
[6] = system: SARS-CoV-2; conditions: for Bliss Synergy Score / HSA Synergy Score / Loewe Synergy Score: with Remdesivir; for classification of the combination effect: with remdesivir
[7] = system: SARS-CoV-2 USA-NYU-VC-003/2020; experiment: In vitro drug efficacy in A549+ACE2 cells; format: cell-based; conditions: Severe acute respiratory syndrome coronavirus 2, 24 hours post infection
[8] = Saturated solubility in co-solvent/co-solvent/water mixtures (F3); conditions: 25 °C, pH 5, aqueous buffer, thermodynamic from solid, PF-00835321 Saturated Solubility, pH 5, 5 mM citrate, PEG400 0.75, Ethanol […] v/v
[9] = system: SARS-CoV-2; experiment: Antiviral activity in HeLa-ACE2 cells (viral protein detection); format: cell-based; conditions: Severe acute respiratory syndrome coronavirus 2, compound alone
[10] = target: Human Cathepsin B (Homo sapiens, UniProt P07858); experiment: Protease panel; format: biochemical
[11] = Physical stability on storage of the 6 mg/mL formulation (F11); format: physicochemical; conditions: 80 mg/mL SBE-β-CD, […] v/v ethanol, 3.4% v/v PEG400, 6 mg/mL PF-00835231
Method: To further assess the robustness of formulations prepared in Formulation Example F10, a single formulation was selected to scale-up for use in a stability study.
An additional 20 mL solution of 300 mg/mL SBE-β-CD was similarly prepared.
14.29 mL of the citrate buffer and SBE-β-CD stock solution was then added to two separate 20 mL scintillation vials. […] The drug product solutions were mixed overnight and filtered through a 0.2 um PVDF filter. 0.5 mL aliquots of drug product solutions were then filled into 4 mL vials, stoppered, crimped, and placed in temperature-controlled chambers at −20° C., 4° C., and 25° C.
Furthermore, if the solutions were supersaturated at room temperature, exposure to refrigerated or frozen storage temperatures should induce precipitation and cause a decrease in assay. […] (top), 4° C. (center), and 25° C. (bottom). For each condition, data from two separate samples is plotted and is shown with a linear fit to the data.

[12] = system: BetaCov GHB-03021/2020 strain; experiment: microbe, parasite or virus in culture; format: cell-based, SARS-CoV-2; conditions: Severe acute respiratory syndrome coronavirus 2
[13] = system: CYP1A2, 2B6, 2C8, 2C9, 2C19, 2D6, and 3A; conditions: read-out: IC50, reversible inhibition of CYP enzymes; probe substrates in pooled HLM
[14] = ~1 mg/mL, 5% v/v co-solvent, pH 4 or 5, with or without 15 mg/mL SBE-β-CD, up to 7 days, all samples
[15] = target: OC43-CoV 3CLpro (Human coronavirus OC43, UniProt P0C6X6); experiment: FRET protease activity assay; format: biochemical; conditions: Beta-CoV; [E]T 52 ± 1 nM
OC43-CoV 3CLpro, sequence (P0C6X6 3247-3549): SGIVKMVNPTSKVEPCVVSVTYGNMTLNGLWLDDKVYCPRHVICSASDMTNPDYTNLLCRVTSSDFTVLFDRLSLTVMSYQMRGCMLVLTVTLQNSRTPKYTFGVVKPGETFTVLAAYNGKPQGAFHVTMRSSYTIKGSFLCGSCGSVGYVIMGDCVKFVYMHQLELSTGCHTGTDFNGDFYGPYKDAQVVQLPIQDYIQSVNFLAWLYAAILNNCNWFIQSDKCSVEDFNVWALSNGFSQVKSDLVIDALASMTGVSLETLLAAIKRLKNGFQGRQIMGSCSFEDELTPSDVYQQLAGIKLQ

[16] = pH 7.4
[17] = physchem; conditions: 25 °C, aqueous with cosolvent or surfactant or cyclodextrin, thermodynamic from solid
[18] = system: Human Chymotrypsin; experiment: Protease panel; format: biochemical
[19] = system: SARS-CoV-2 USA-WA1/2020; experiment: In vitro drug efficacy in A549+ACE2 cells; format: cell-based
[20] = rat, dog, monkey, in vivo
[21] = Admixture physical stability in 0.9% w/v sodium chloride; conditions: 25° C.
[22] = Patient Sera 2, individual value, n 1
[23] = 2.5x dilution in 0.9% w/v sodium chloride
[24] = 10x dilution in 0.9% w/v sodium chloride

COc1cccc2[nH]c(C(=O)N[C@@H](CC(C)C)C(=O)N[C@@H](C[C@@H]3CCNC3=O)C(=O)CO)cc12 [PF-00835231]
melting temperature (Tm) of SARS-CoV-2 3CLpro with compound bound [1]: 70.5+/−0.12 °C | IC50 [2]: > 33.3 µM | visual inspection after freezing and thawing [3]: No particulates were observed in any sample | Solid Form at 4° C. (pH 3): No Change-Hydrate | Solid Form at 4° C. (pH 5): No Change-Hydrate | Solid Form at 4° C. (pH 7): No Change-Hydrate | Ki [4]: 1.5 ± 0.8 nM | PF-00835231 Assay ([5]; HPMC 1 mg/mL): 0.4 mg/mL | PF-00835231 Assay ([5]; PEG400 […]): 0.4 mg/mL | PF-00835231 Assay ([5]; PEG3350 […]): 0.4 mg/mL | PF-00835231 Assay ([5]; PVP […]): 0.4 mg/mL | PF-00835231 Assay ([5]; no polymeric excipient): 0.4 mg/mL | cytotoxicity in virus infected host cells ([6]; all the combinations with remdesivir tested): no noticeable cytotoxicity | Bliss Synergy Score ([6]; Patient Sera 1, average, n 2): 1.60 | HSA Synergy Score ([6]; Patient Sera 1, average, n 2): 2.51 | Loewe Synergy Score ([6]; Patient Sera 1, average, n 2): 1.60 | Bliss Synergy Score [6, 22]: (0.366) | HSA Synergy Score [6, 22]: (0.830) | Loewe Synergy Score [6, 22]: (−0.0776) | classification of the combination effect ([6]; patient #1 sera, 2 independent experiments): synergy | classification of the combination effect ([6]; sera from patient #2, single experiment): additivity | EC50 [7]: 184 nM | EC90 [7]: 591 nM | solubility at 48 h [8]: 100 µg/mL (≈ 0.212 mM) | EC50 [9]: 140 nM and 144 nM | EC90 [9]: 400 nM and 398 nM | margin of activity against human cathepsin B compared to 3CLpro [10]: 1000 fold | assay values on storage at 4° C. and 25° C. (FIG. 13) [11]: consistent over the 30 day period tested | assay values on storage at −20° C. (FIG. 13) [11]: consistent over the 7 day period tested | EC90 [12]: 1600 nM | IC50 [13]: > 200 µM | decrease in chromatographic purity at 22° C. [14]: less than 0.5% | Ki [15]: 0.5 ± 0.1 nM | SFLogD7.4 [16]: 1.7 | solubility [17]: 1700 µg/mL (≈ 3.6 mM) | solubility at 48 h [17]: 1900 µg/mL (≈ 4.02 mM) | solubility at 72 h [17]: 2000 µg/mL (≈ 4.23 mM) | IC50 [18]: > 100 µM | EC50 ([19]; Severe acute respiratory syndrome coronavirus 2, A549-ACE2, 24 h): 221 nM | EC90 ([19]; Severe acute respiratory syndrome coronavirus 2, A549-ACE2, 24 h, read-out: EC90): 734 nM | EC50 ([19]; Severe acute respiratory syndrome coronavirus 2, A549-ACE2, 48 h): 158 nM | EC90 ([19]; Severe acute respiratory syndrome coronavirus 2, A549-ACE2, 48 h, read-out: EC90): 439 nM | EC90 ([19]; Severe acute respiratory syndrome coronavirus 2, A549-ACE2, dose response assay in human lung carcinoma cells, read-out: average EC90): 440 nM | eliminated unchanged in the urine [20]: approximately 10% | Assay - 0 days [21, 23]: 2.3 mg/mL and 2.2 mg/mL | Assay - 3 days [21, 23]: 2.3 mg/mL and 2.2 mg/mL | Total Impurities - 0 days [21, 23]: 1.23 % peak area and 1.20 % peak area | Total Impurities - 3 days [21, 23]: 1.38 % peak area and 1.37 % peak area | Assay - 0 days [21, 24]: 0.6 mg/mL | Assay - 3 days [21, 24]: 0.6 mg/mL | Total Impurities - 0 days [21, 24]: 1.20 % peak area | Total Impurities - 3 days [21, 24]: 1.33 % peak area | Assay - 0 days ([21]; No dilution): 5.8 mg/mL and 5.6 mg/mL | Assay - 3 days ([21]; No dilution): 5.8 mg/mL and 5.7 mg/mL | Total Impurities - 0 days ([21]; No dilution): 1.25 % peak area | Total Impurities - 3 days ([21]; No dilution): 1.44 % peak area and 1.48 % peak area

— patent US20230157998A1, “Methods of Inhibiting SARS-CoV-2 Replication and Treating Corona Virus Disease 2019” (Pfizer Inc., priority 2020, published 2023)
